# According to paper PMC7355684 (Pharmaceutics, 2020):
# “Also recorded” adds a separate entry of the source. Read-outs that look alike come from different tables or passages of the source. Where a SMILES comes first, the peptide text is derived from it. Side-chain parts run from the residue outwards. The star is where a group is joined. Daunorubicin(13-NOCH2CO) = COc1cccc2c1C(=O)c1c(O)c3c(c(O)c1C2=O)C[C@@](O)(C(C)=NOCC(=O)*)C[C@@H]3O[C@H]1C[C@H](N)[C@H](O)[C@H](C)O1
# What was measured:
# [1] = test system: PANC-1 cells; test: cells; assay type: cell-based, human
# Method: This measurement is based on the registration of electrical resistance (impedance, Z) in alternating current (AC) field. The living cells transplanted to the gold measuring electrodes are physically insulated by phospholipid bilayer that covers them. This instrumentally measurable property changes (decreases) in response to cellular cytotoxic agents. Our measurements were performed on xCELLigence single plate (ACEA Biosciences, San Diego, CA, USA) dedicated for impedimetric analysis of cellular samples at 37 °C and 5% CO2.
# During the initial phase of the experiments—the baseline recording—a special 96-well cell culture plate, E-plate (ACEA Biosciences), equipped with measuring electrodes, was pretreated with freshly prepared cell culture medium (for 60 min; sampling frequency: 1 min). Subsequently, PANC-1 cells were plated at a cell density of 10^4 cells/well. During the 24 h incubation, the cells evenly covered the electrodes at the bottom of the wells of the E-plate. The resulting confluent cell cultures were then treated with the test substances at the following final concentrations: 10^−6, 10^−5, 10^−4 M. Total treatment duration was 72 h and the sampling rate was 1 min (0–24 h); and then 15 min (48–72 h). In our measurements, three replicates were used, the control was the drug-free medium. […] The CI results were analyzed with xCELLigence RTCA 2.0 software and Origin Pro 8.0 software.
# [2] = test system: A2058 cells; assay type: cell-based, human
# Method: (§1) EBC-1 and Colo-205 model cells have weak/negligible adherent properties, and A2058 cells could not produce constant cell index values. Therefore, a colorimetric assay (alamarBlue-assay) was chosen instead of the xCELLigence system to investigate the viability of these model cells treated with the conjugates. Due to the growth characteristics of NHDF cells, alamarBlue-assay was performed also on this cell line.
# (§2) The protocol for the alamarBlue-assay was similar to the method which was published earlier, with some minor modifications. Briefly, the cell seeding occurred on 96-well cell culture plates (Sarstedt AG, Nümbrecht, Germany) at 10^4 cells/well concentration. After a 24 h long culturing period, the treatment was carried out with the conjugates at 10^−4, 10^−5 and 10^−6 M final concentrations for 24, 48 and 72 h. In the next steps, the alamarBlue reagent (0.15 mg/mL, Sigma-Aldrich) dissolved in phosphate-buffered saline (PBS; pH = 7.2), was added to the wells. After 6 h incubation with the reagent, the fluorescence intensity of the samples was obtained by an LS-50B Luminescence Spectrometer (Perkin Elmer Ltd., Buckinghamshire, UK) or a Fluoroskan^TM FL Microplate Fluorometer and Luminometer (Thermo Scientific, Waltham, MA, USA) by using the following settings: λex = 560 nm and λem = 590 nm.
# (§3) Three parallels were performed per treatment group. In the case of controls, an equivalent volume of cell culture media was added to the cell. Fluorescence intensities of the samples treated with various concentrations of conjugates were expressed as a percentage of the fluorescence of control.
# [3] = test system: Colo-205 cells; assay type: cell-based, human
# Method: as §1, §2, §3
# [4] = test system: EBC-1 cells; assay type: cell-based, human
# Method: as §1, §2, §3
# [5] = Lysosomal degradation of conjugates by LC-MS; assay type: in vitro ADME; conditions: rat liver lysosome homogenate, 0.2 M NaOAc pH 5.03, 0.025 μg/μL conjugate, 37 °C; for Time to complete lysosomal degradation: sampling up to 72 h
# Method: For the stability and metabolism studies of the conjugates, liquid chromatography–mass spectrometry (LC-MS) analyses were performed on a Q ExactiveTM Focus, high resolution and high mass accuracy, hybrid quadrupole-orbitrap mass spectrometer (Thermo Fisher Scientific, Bremen, Germany) using on-line UHPLC coupling. UHPLC separation was performed on a Dionex 3000 UHPLC system using a Supelco Ascentis C18 column (2.1 × 150 mm, 3 µm). Linear gradient elution (0 min 2% B, 1 min 2% B, 17 min 90% B) with eluent A (0.1% HCOOH in water, v/v) and eluent B (0.1% HCOOH in acetonitrile/water, 80:20, v/v) was used at a flow rate of 0.2 mL/min at 40 °C. High-resolution mass spectra were acquired in the 200–1600 m/z range. LC-MS data were analyzed by XcaliburTM software (Thermo Fisher Scientific) and with Origin Pro 8 (OriginLab Corp., Northampton, MA, USA).
# Conjugates were dissolved in distilled water in 2.5 μg/μL concentration followed by dilution with 0.2 M NaOAc solution (pH = 5.03) to 0.025 μg/μL. The lysosome-homogenate was prepared from rat liver and contained proteins in 16.6 μg/μL concentration. An aliquot (20 μL) of this stock solution was further diluted with […] 0.2 M NaOAc solution, therefore the final protein concentration was 0.83 μg/μL. To prepare the reaction mixture, 15 μL (0.83 μg/μL) lysosome homogenate was added to 500 μL (0.025 μg/μL) conjugate solution. Furthermore, a control reaction mixture was always prepared which contained 500 μL conjugate solution and 15 μL NaOAc solution only. The solutions were stirred on 600 rpm at 37 °C and samples (50 μL) were taken out at 0 min, 5 min, 15 min, 30 min, 1 h, 2 h, 6 h, 24 h, and 72 h. The enzymatic activity was quenched by adding 5 μL formic acid to the samples. After this procedure, samples were frozen immediately at −25 °C. Control samples were taken at 0 min, 15 min, 1 h, 6 h, 24 h and 72 h. Composition of the samples was determined by HPLC-MS as described above.
# [6] = lysosome-homogenate prepared from rat liver, in 0.2 M NaOAc solution (pH = 5.03); conditions: 37 °C, up to 72 h
# [7] = PANC-1, impedimetry, cell index normalized to control wells, 10^−5 M, mean ± SD, n = 3
# [8] = alamarBlue fluorescence normalized to control wells, 10^-5 M, mean ± SD, n=3
molecule,measurement,setting,value
"COc1cccc2c1C(=O)c1c(O)c3c(c(O)c1C2=O)C[C@@](O)(C(C)=NOCC(=O)NCC(=O)N[C@@H](Cc1ccccc1)C(=O)N[C@@H](CC(C)C)C(=O)NCC(=O)NCCCC[C@H](NC(=O)CNC(=O)[C@H](CC(C)C)NC(=O)[C@H](Cc1ccccc1)NC(=O)CNC(=O)CON=C(C)[C@]1(O)Cc2c(O)c4c(c(O)c2[C@@H](O[C@H]2C[C@H](N)[C@H](O)[C@H](C)O2)C1)C(=O)c1c(OC)cccc1C4=O)C(=O)N[C@@H](CO)C(=O)N[C@@H](CCCCN)C(=O)N[C@@H](C)C(=O)N[C@@H](C)C(=O)N[C@@H](CCCCN)C(=O)N[C@@H](CC(N)=O)C(=O)O)C[C@@H]3O[C@H]1C[C@H](N)[C@H](O)[C@H](C)O1 [conjugate 5, Dau=Aoa-GFLG-K(Dau=Aoa-GFLG)SKAAKN-OH] ({Daunorubicin(13-NOCH2CO)}-GFLGK([Gly-Leu-Phe-Gly-Daunorubicin(13-NOCH2CO)])SKAAKN-OH)","Viability (%) at 10^−5 M Concentration, After 72 h Incubation",[1]; [7],31.3 ± 1.8%
same,Viability after 24 h,"[1]; PANC-1, impedimetry, 10^−5 M, 24 h (Figure 1A)",34%
same,"Viability (%) at 10-5 M concentration, after 72 h incubation, A2058",[2]; [8],61.9 ± 11.6%
same,"Viability (%) at 10-5 M concentration, after 72 h incubation, Colo-205",[3]; [8],45.8 ± 2.6%
same,"Viability (%) at 10-5 M concentration, after 72 h incubation, EBC-1",[4]; [8],57.6 ± 11.1%
same,Time to complete lysosomal degradation,[5],> 72 h
Dau=Aoa-SKAAKN-OH,fragment found,[6],"Dau=Aoa-S-OH, 0 min; also recorded: Dau=Aoa-SK-OH, 0 min"
COc1cccc2c1C(=O)c1c(O)c3c(c(O)c1C2=O)C[C@@](O)(C(C)=NOCC(=O)N[C@@H](CO)C(=O)N[C@@H](CCCCN)C(=O)N[C@@H](C)C(=O)N[C@@H](C)C(=O)N[C@@H](CCCCN)C(=O)N[C@@H](CC(N)=O)C(=O)O)C[C@@H]3O[C@H]1C[C@H](N)[C@H](O)[C@H](C)O1 [conjugates 1] ({Daunorubicin(13-NOCH2CO)}-SKAAKN-OH),Speed of lysosomal degradation (in words),[5],very fast
"COc1cccc2c1C(=O)c1c(O)c3c(c(O)c1C2=O)C[C@@](O)(C(C)=NOCC(=O)N[C@@H](CCCCN)C(=O)N[C@@H](CO)C(=O)N[C@@H](CCCCN)C(=O)N[C@@H](C)C(=O)N[C@@H](C)C(=O)N[C@@H](CCCCN)C(=O)N[C@@H](CC(N)=O)C(=O)O)C[C@@H]3O[C@H]1C[C@H](N)[C@H](O)[C@H](C)O1 [conjugate 2, Dau=Aoa-KSKAAKN-OH] ({Daunorubicin(13-NOCH2CO)}-KSKAAKN-OH)",Speed of lysosomal degradation (in words),[5],very fast
Dau=Aoa-GFLG-KSKAAKN-OH,fragment found,[6],"Dau=Aoa-GFL-OH; also recorded: Dau=Aoa-GFLGK-OH; also recorded: Dau=Aoa-GFLGKSK-OH, first_seen, 0 min; also recorded: Dau=Aoa-GFLGKSKAA-OH, first_seen, 0 min; also recorded: Dau=Aoa-G-OH, 30 min; also recorded: Dau=Aoa-GF-OH, major, 30 min"
Dau=Aoa-GFLG-K(Dau=Aoa-GFLG)SKAAKN-OH,fragment found,[6],"Dau=Aoa-G-OH, minor; also recorded: Dau=Aoa-GF-OH; also recorded: Dau=Aoa-GFL-OH; also recorded: H-K(Dau=Aoa-GFLG)SK-OH; also recorded: H-K(Dau=Aoa-GFLG)SKAA-OH; also recorded: H-K(Dau=Aoa-GFLG)SKAAKN-OH"
"COc1cccc2c1C(=O)c1c(O)c3c(c(O)c1C2=O)C[C@@](O)(C(C)=NOCC(=O)NCC(=O)N[C@@H](Cc1ccccc1)C(=O)N[C@@H](CC(C)C)C(=O)NCC(=O)N[C@@H](CCCCN)C(=O)N[C@@H](CO)C(=O)N[C@@H](CCCCN)C(=O)N[C@@H](C)C(=O)N[C@@H](C)C(=O)N[C@@H](CCCCN)C(=O)N[C@@H](CC(N)=O)C(=O)O)C[C@@H]3O[C@H]1C[C@H](N)[C@H](O)[C@H](C)O1 [conjugate 3, Dau=Aoa-GFLG-KSKAAKN-OH] ({Daunorubicin(13-NOCH2CO)}-GFLGKSKAAKN-OH)","Viability (%) at 10^−5 M Concentration, After 72 h Incubation",[1]; [7],105.1 ± 1.9%
same,"Viability (%) at 10-5 M concentration, after 72 h incubation, A2058",[2]; [8],79.4 ± 17.6%
same,"Viability (%) at 10-5 M concentration, after 72 h incubation, Colo-205",[3]; [8],59.3 ± 3.6%
same,"Viability (%) at 10-5 M concentration, after 72 h incubation, EBC-1",[4]; [8],76.2 ± 13.7%
same,Time to complete lysosomal degradation,[5],≤ 1 h
Dau=Aoa-KSKAAKN-OH,fragment found,[6],"Dau=Aoa-K-OH, minor, 30 min; also recorded: Dau=Aoa-KS-OH, 15 min; also recorded: Dau=Aoa-KSK-OH"
"COc1cccc2c1C(=O)c1c(O)c3c(c(O)c1C2=O)C[C@@](O)(C(C)=NOCC(=O)N[C@@H](CO)C(=O)N[C@@H](CCCCN)C(=O)N[C@@H](C)C(=O)N[C@@H](C)C(=O)N[C@@H](CCCCN)C(=O)N[C@@H](CC(N)=O)C(=O)O)C[C@@H]3O[C@H]1C[C@H](N)[C@H](O)[C@H](C)O1 [conjugate 1, Dau=Aoa-SKAAKN-OH] ({Daunorubicin(13-NOCH2CO)}-SKAAKN-OH)",Viability after 24 h treatment at 10^−4 M (initial CI increase),"[1]; 24 h, 1e-4 M",224.1 ± 18.73%
same,"Viability (%) at 10^−5 M Concentration, After 72 h Incubation",[1]; 1e-5 M,112.5 ± 5.1%
same,"Viability (%) at 10-5 M concentration, after 72 h incubation, A2058",[2]; 1e-5 M,61.5 ± 2.7%
same,"Viability (%) at 10-5 M concentration, after 72 h incubation, Colo-205",[3]; 1e-5 M,50.7 ± 1.6%
same,"Viability (%) at 10-5 M concentration, after 72 h incubation, EBC-1",[4]; 1e-5 M,77.8 ± 1.0%
